Test results from patent US11078193B2 (priority 2014, dated 2021).

Columns and labels:
HBV [1] = test: anti HBV activity, HepG2.117 inducibly HBV producing cell line (Tet-off), intracellular HBV DNA by realtime PCR; format: cell-based; conditions: Hepatitis B virus, 72 h, HepG2.117 cells, 3 days of treatment
[2] = ATP based toxicity assay (ATPlite), HepG2 cell line; conditions: human, HepG2 cells, ATPlite (ATP levels)
Procedure: Alternatively, cytotoxicity was determined via an ATP-assay: The ATPlite kit from Perkin Elmer was used to assess compound cytotoxicity on the HepG2 cell line by determination of the ATP (adenosine triphosphate) levels. ATP is a marker for functional integrity and cell viability, because it is present in all metabolically active cells and any form of cell injury will result in a rapid decline in cellular ATP concentration. After compound incubation, 1 volume of ATPlite solution was added to the cells and the luminescence signal was measured.

HBV [3] = test: anti-HBV activity, HepG2.2.15 stable transfected cell line, HBV DNA from secreted virions by realtime PCR; format: cell-based; conditions: Hepatitis B virus, 144 h, HepG2.2.15 cells, 6 days of treatment
[4] = Cytotoxicity, HepG2 cells, Resazurin assay; format: cell-based; conditions: human

Row | SMILES | EC50 (HBV [1]) [nM] | CC50 at 4 days [2] [nM] | EC50 (HBV [3]) [nM] | CC50 at 4 days [4] [nM]
1 | Cn1cc(S(=O)(=O)NC2(C(F)(F)F)COC2)c(F)c1C(=O)Nc1ccnc(Br)c1 [Compound 209, N-(2-bromo-4-pyridyl)-3-fluoro-1-methyl-4-[[3-(trifluoromethyl)oxetan-3-yl]sulfamoyl]pyrrole-2-carboxamide] | 90 | > 25000 |  | 
2 | Cn1cc(S(=O)(=O)NC2(C(F)(F)F)CC2)c(F)c1C(=O)Nc1cc(F)nc(F)c1 [Compound 193, N-(2,6-difluoro-4-pyridyl)-3-fluoro-1-methyl-4-[[1-(trifluoromethyl)cyclopropyl]sulfamoyl]pyrrole-2-carboxamide] | 9 | > 25000 |  | 
3 | Cn1cc(S(=O)(=O)NC(C)(C)C(F)(F)F)c(F)c1C(=O)Nc1ccnc(C(F)F)c1F [Compound 201, N-[2-(difluoromethyl)-3-fluoro-4-pyridyl]-3-fluoro-1-methyl-4-[(2,2,2-trifluoro-1,1-dimethyl-ethyl)sulfamoyl]pyrrole-2-carboxamide] | 30 | > 25000 |  | 
4 | Cn1cc(S(=O)(=O)NC2(C(F)(F)F)CCC2)cc1C(=O)Nc1ccnc(C#N)c1 [Compound 42, N-(2-cyano-4-pyridyl)-1-methyl-4-[[1-(trifluoromethyl)cyclobutyl]-sulfamoyl]pyrrole-2-carboxamide] | 80 |  | 50 | > 25000
5 | Cn1cc(S(=O)(=O)NC2(C(F)(F)F)CCC2)cc1C(=O)Nc1ccnc(Cl)c1 [Compound 48, N-(2-chloro-4-pyridyl)-1-methyl-4-[[1-(trifluoromethyl)cyclobutyl]-sulfamoyl]pyrrole-2-carboxamide] | 40 |  | 60 | > 25000
6 | C[C@@H](NS(=O)(=O)c1cn(C)c(C(=O)Nc2cc(Cl)nc(Cl)c2)c1F)C(F)(F)F [Compound 126, N-(2,6-dichloro-4-pyridyl)-3-fluoro-1-methyl-4-[[(1R)-2,2,2-trifluoro-1-methyl-ethyl]sulfamoyl]pyrrole-2-carboxamide] | 20 |  | 20 | > 25000
7 | Cn1cc(S(=O)(=O)NC2(C)CC(F)(F)C2)c(Cl)c1C(=O)Nc1ccnc(Cl)c1 [Compound 65, 3-chloro-N-(2-chloro-4-pyridyl)-4-[(3,3-difluoro-1-methyl-cyclobutyl)-sulfamoyl]-1-methyl-pyrrole-2-carboxamide] | 30 |  | 20 | > 25000
8 | C[C@@H](NS(=O)(=O)c1cn(C)c(C(=O)Nc2ccnc(C(F)(F)F)c2)c1F)C(F)(F)F [Compound 21, 3-fluoro-1-methyl-[[(1R)-2,2,2-trifluoro-1-methyl-ethyl]sulfamoyl]-N-[2-(trifluoromethyl)-4-pyridyl]pyrrole-2-carboxamide] | 30 |  | 40 | > 25000
9 | Cn1cc(S(=O)(=O)NC2(C)COC2)cc1C(=O)Nc1cncc(C(F)(F)F)c1 [Compound 2, 1-Methyl-4-[(3-methyloxetan-3-yl)sulfamoyl]-N-[5-(trifluoromethyl)pyridin-3-yl]-1H-pyrrole-2-carboxamide] | 10400 |  | > 1000 | > 25000
10 | CC[C@H](NS(=O)(=O)c1cc(C(=O)Nc2ccnc(C#N)c2)n(C)c1)C(F)(F)F [Compound 41, N-(2-cyano-4-pyridyl)-1-methyl-4-[[(1S)-1-(trifluoromethyl)propyl]-sulfamoyl]pyrrole-2-carboxamide] | 100 |  | 70 | > 25000
11 | C[C@@H](NS(=O)(=O)c1cn(C)c(C(=O)Nc2ccc(F)cn2)c1F)C(F)(F)F [Compound 28, 3-fluoro-N-(5-fluoro-2-pyridyl)-1-methyl-4-[[(1R)-2,2,2-trifluoro-1-methyl-ethyl]sulfamoyl]pyrrole-2-carboxamide] | 700 |  | 360 | > 25000
12 | C[C@@H](NS(=O)(=O)c1cn(C)c(C(=O)Nc2cccc(C(F)(F)F)n2)c1F)C(F)(F)F [Compound 26, 3-fluoro-1-methyl-4-[[(1R)-2,2,2-trifluoro-1-methyl-ethyl]sulfamoyl]-N-[6-(trifluoromethyl)-2-pyridyl]pyrrole-2-carboxamide] | > 1000 |  | 110 | > 25000
13 | C[C@@H](NS(=O)(=O)c1cn(C)c(C(=O)Nc2cnc(F)c(Br)c2)c1F)C(F)(F)F [Compound 29, N-(5-bromo-6-fluoro-3-pyridyl)-3-fluoro-1-methyl-4-[[(1R)-2,2,2-trifluoro-1-methyl-ethyl]sulfamoyl]pyrrole-2-carboxamide] | 60 |  | 40 | > 25000
14 | C[C@@H](NS(=O)(=O)c1cn(C)c(C(=O)Nc2ccnc(Cl)c2F)c1Cl)C(F)(F)F [Compound 33, 3-chloro-N-(2-chloro-3-fluoro-4-pyridyl)-1-methyl-4-[[(1R)-2,2,2-trifluoro-1-methyl-ethyl]sulfamoyl]pyrrole-2-carboxamide] | 10 |  | 8 | > 25000
15 | Cn1cc(S(=O)(=O)NC2(C)COC2)cc1C(=O)Nc1ccnc(C#N)c1 [Compound 1, N-(2-Cyanopyridin-4-yl)-1-methyl-4-[(3-methyloxetan-3-yl)sulfamoyl]-1H-pyrrole-2-carboxamide] | 650 |  | 860 | > 25000
16 | Cn1cc(S(=O)(=O)NC2(C(F)(F)F)CC2)cc1C(=O)Nc1ccnc(C#N)c1 [Compound 49, N-(2-cyano-4-pyridyl)-1-methyl-4-[[1-(trifluoromethyl)cyclopropyl]-sulfamoyl]pyrrole-2-carboxamide] | 110 |  | 110 | > 25000
17 | CC[C@H](NS(=O)(=O)c1cc(C(=O)Nc2ccnc(Cl)c2)n(C)c1)C(F)(F)F [Compound 47, N-(2-chloro-4-pyridyl)-1-methyl-4-[[(1S)-1-(trifluoromethyl)propyl]-sulfamoyl]pyrrole-2-carboxamide] | 40 |  | 60 | > 25000
18 | CC[C@@H](NS(=O)(=O)c1cn(C)c(C(=O)Nc2ccnc(C#N)c2)c1F)C(F)(F)F [Compound 31, N-(2-cyano-4-pyridyl)-3-fluoro-1-methyl-4-[[(1R)-1-(trifluoromethyl)propyl]-sulfamoyl]pyrrole-2-carboxamide] | 40 |  | 30 | > 25000
19 | C[C@@H](NS(=O)(=O)c1cn(C)c(C(=O)Nc2cc(F)nc(F)c2)c1F)C(F)(F)F [Compound 30, N-(2,6-difluoro-4-pyridyl)-3-fluoro-1-methyl-4-[[(1R)-2,2,2-trifluoro-1-methyl-ethyl]sulfamoyl]pyrrole-2-carboxamide] | 10 |  | < 100 | > 25000
20 | C[C@@H](NS(=O)(=O)c1cn(C)c(C(=O)Nc2ccnc(Cl)c2F)c1F)C(F)(F)F [Compound 118, N-(2-chloro-3-fluoro-4-pyridyl)-3-fluoro-1-methyl-4-[[(1R)-2,2,2-trifluoro-1-methyl-ethyl]sulfamoyl]pyrrole-2-carboxamide] | 10 |  | 100 | > 25000
21 | C[C@@H](NS(=O)(=O)c1cn(C)c(C(=O)Nc2ccnc(C#N)c2F)c1Cl)C(F)(F)F [Compound 143, 3-chloro-N-(2-cyano-3-fluoro-4-pyridyl)-1-methyl-4-[[(1R)-2,2,2-trifluoro-1-methyl-ethyl]sulfamoyl]pyrrole-2-carboxamide] | 20 |  | 180 | > 25000
